According to patent publication US20230303544A1, “LMO2 PROTEIN INHIBITORS” (UNIVERSITY OF OXFORD, priority 2020, published 2023):
pIC50: −log10 of the molar value. Values joined by “and” are separate entries in the source; they are usually repeats but may differ in a detail not shown here. Equal values may be shown once.

Molecular target: T1, LMO2-iDAb LMO2dm3 interaction (Homo sapiens, UniProt P25791)
T1 construct: LMO2 cDNA was cloned into the pEF-RLuc8-MCS and pEF-MCS-RLuc8 plasmids; expressed in transfected cells; host or cells: HEK293T
T1 sequence (P25791 1-158): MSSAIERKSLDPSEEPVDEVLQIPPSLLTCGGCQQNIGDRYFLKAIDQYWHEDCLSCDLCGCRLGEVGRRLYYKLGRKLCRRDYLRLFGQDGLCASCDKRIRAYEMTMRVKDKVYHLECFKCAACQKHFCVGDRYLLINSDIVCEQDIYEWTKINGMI
Test: LMO2-iDAb LMO2dm3 BRET assay
Type: cell-based
Conditions: 22 h; for inhibition of LMO2-iDAb LMO2dm3 interaction (in words): BRET competition, Abd concentration 1 (or 5), 10, 20 μM; for pIC50: BRET dose response, HEK293T cells, 0.01-50 μM
Description: For all BRET experiments (titration curves and competition assays) 650,000 HEK293T were seeded in each well of a 6 well plates. After 24 hours at 37° C., cells were transfected with a total of 1.6 μg of DNA mix, containing the donor+acceptor±competitor plasmids, using Lipofectamine 2000 transfection reagent (Thermo-Fisher). In dose response competition experiments, competitors were transfected with the following amount of DNA: 0.1; 0.5 and 1 μg. In single dose competition experiments, competitors were transfected with […] of DNA. Cells were detached 24 hours later, washed with PBS and seeded in a white 96-well plate (clear bottom, PerkinElmer, Cat #6005181) in OptiMEM no phenol red medium complemented with 4% FBS and cells were incubated for an additional 20-24 hours at 37° C. before the BRET assay reading. A detailed BRET protocol is provided by Bery and Rabbitts, (2019).
Compounds were prepared in 100% DMSO at 10 mM. For BRET competition assays, cells were treated with the indicated compounds at concentration of 1 (or 5), 10 and 20 μM for 22 h. For BRET-based dose response experiments, cells were treated with compounds at concentration of 0.01, 0.1, 1, 4, 10, 25 and 50 μM for 22 h. The compounds were diluted in the BRET medium: OptiMEM no phenol red (Life Technologies) supplemented with 4% FBS and with a final concentration of 0.2% DMSO.
BRET2 signal was determined immediately after injection of coelenterazine 400a substrate (10 μM final) to cells (Cayman Chemicals), using a CLARIOstar instrument (BMG Labtech) with a luminescence module. Total GFP^2 fluorescence was detected with excitation and emission peaks set at 405 nm and 515 nm respectively. Total RLuc8 luminescence was measured with the Luminescence 400-700 nm-wavelength filter.
The BRET signal or BRET ratio corresponds to the light emitted by the GFP^2 acceptor constructs (515 nm±30) upon addition of coelenterazine 400a divided by the light emitted by the RLuc8 donor constructs (410 nm±80). The background signal is subtracted from that BRET ratio using the donor-only negative control where only the RLuc8 fusion plasmid is transfected into the cells. The normalized BRET ratio is the BRET ratio normalized to a negative control (iDAb control or DMSO control) during a competition assay. Total GFP^2 and RLuc8 signals were used to control the protein expression from each plasmid.

| inhibition of LMO2-iDAb LMO2dm3 interaction (in words) | pIC50 | Compound |
| --- | --- | --- |
| unable to inhibit |  | COc1ccc(NC(=O)c2cnc(N3CCN(Cc4ccc(Cl)cc4)C3=O)o2)cc1OC [Abd-L8, 2-(3-(4-chlorobenzyl)-2-oxoimidazolidin-1-yl)-N-(3,4-dimethoxyphenyl)oxazole-5-carboxamide] |
|  | ~6.00 and 6.00 | N#Cc1cccc(CN2CCN(c3nc(C(=O)Nc4ccc(-n5cccc5)cc4)co3)C2=O)c1 [Abd-L10, N-(4-(1H-pyrrol-1-yl)phenyl)-2-(3-(3-cyanobenzyl)-2-oxoimidazolidin-1-yl)oxazole-4-carboxamide] |
| unable to inhibit |  | O=C(NCCc1ccccc1)c1cnc(N2CCN(Cc3ccc(Cl)cc3)C2=O)o1 [Abd-L11, 2-(3-(4-chlorobenzyl)-2-oxoimidazolidin-1-yl)-N-phenethyloxazole-5-carboxamide] |
| do not affect |  | COc1cccc(CN2CCCN(c3nc(C(=O)Nc4ccc(-n5cccc5)cc4)co3)C2=O)c1 [Abd-L24, N-(4-(1H-pyrrol-1-yl)phenyl)-2-(3-(3-methoxybenzyl)-2-oxotetrahydropyrimidin-1(2H)-yl)oxazole-4-carboxamide] |

The next lines start with the compound.

| Compound | inhibition of LMO2-iDAb LMO2dm3 interaction (in words) | pIC50 |
| --- | --- | --- |
| CS(=O)(=O)Nc1ccccc1NC(=O)c1cnc(N2CCN(Cc3ccccc3)C2=O)s1 [Abd-L5, 2-(3-benzyl-2-oxoimidazolidin-1-yl)-N-(2-(methylsulfonamido)phenyl)thiazole-5-carboxamide] | unable to inhibit |  |
| COc1cccc(CN2CCN(c3nc(C(=O)Nc4ccc(-n5cccc5)cc4)co3)CC2)c1 [Abd-L15, N-(4-(1H-pyrrol-1-yl)phenyl)-2-(4-(3-methoxybenzyl)piperazin-1-yl)oxazole-4-carboxamide] |  | 4.78 |
| COc1cccc(CN2CCN(c3nc(C(=O)Nc4ccc(OCc5ccccc5)cc4)co3)CC2)c1 [Abd-L16, N-(4-(benzyloxy)phenyl)-2-(4-(3-methoxybenzyl)piperazin-1-yl)oxazole-4-carboxamide] |  | 5.92 |
| COc1cccc(CN2CCN(c3nc(C(=O)Nc4ccc(OCc5ccccc5)cc4)cs3)CC2)c1 [Abd-L17, N-(4-(benzyloxy)phenyl)-2-(4-(3-methoxybenzyl)piperazin-1-yl)thiazole-4-carboxamide] |  | 4.89 |
| COc1cccc(CN2CCN(c3nc(C(=O)Nc4ccc(-n5cccc5)cc4)cs3)CC2)c1 [Abd-L18, N-(4-(1H-pyrrol-1-yl)phenyl)-2-(4-(3-methoxybenzyl)piperazin-1-yl)thiazole-4-carboxamide] |  | 4.80 |
| COc1ccc(CN2CCN(c3nc(C(=O)Nc4ccc(-n5cccc5)cc4)co3)CC2)cc1 [Abd-L19, N-(4-(1H-pyrrol-1-yl)phenyl)-2-(4-(4-methoxybenzyl)piperazin-1-yl)oxazole-4-carboxamide] |  | 4.31 |
| COc1cccc(CN2CCN(c3nccc(C(=O)Nc4ccc(-n5cccc5)cc4)n3)CC2)c1 [Abd-L25, N-(4-(1H-pyrrol-1-yl)phenyl)-2-(4-(3-methoxybenzyl)piperazin-1-yl)pyrimidine-4-carboxamide] | do not affect |  |
